In publication PMC10017042 (Science Advances, 2023):
“And” between values parts separate entries of the source, which are not always exact repeats. Identical values can stand only once. Like-named read-outs stand apart in the source and are kept apart here.

Columns and labels:
HIV-1 = details: for Median fold change in CA US HIV-1 RNA from baseline: pyrimethamine monotherapy excluding LUNA-10 who stopped; for CA US HIVRNA copies/150 ng Total RNA Day 0, 6 hours / CA US HIVRNA copies/150 ng Total RNA Day 14 / CA US HIVRNA copies/150 ng Total RNA Day 42 / CA US HIVRNA copies/150 ng Total RNA Day 0, pretreatment: individual participants, one value each, below LOQ imputed as 16; for CA US HIVRNA copies/150 ng Total RNA Day 0, pretreatment: pretreatment baseline
Procedure: Because of low cell numbers in the baseline sample, LUNA-06 (combination arm, participant stopped at day 7) was excluded from this primary end point analysis.
For quantification of CA US HIV-1 RNA, CD4^+ T cells were isolated from peripheral blood mononuclear cells (PBMCs) by negative selection using EasySep Human CD4^+ T Cell Enrichment Cocktail ([…] Technologies). Isolation of CD4^+ T cells was performed on ice or at 4°C (unless indicated otherwise by the manufacturer). Approximately 1.5 × 10^6 CD4^+ T cells were lysed in triplicate with TRI reagent. Total RNA was isolated by the phenol/chloroform isolation method following the manufacturer’s instructions. A minimum of 150 ng of total RNA was deoxyribonuclease (DNase)–treated following the manufacturer’s instructions (DNase I, Amplification Grade, Invitrogen), and complementary DNA (cDNA) synthesis was performed in duplicate with SuperScript II (Invitrogen) following the manufacturer‘s instructions. Absolute quantification of CA US HIV-1 RNA was performed following a modified version of Pasternak et al. methodology ([72]). Briefly, the first round of nested amplification was performed in a final volume of 25 μl using 10 μl of cDNA, 2.5 μl of 10× PCR buffer (Life Technologies), 1 μl of 50 mM MgCl2 (Life Technologies), 1 μl of 10 mM deoxynucleotide triphosphate (dNTP) (Life Technologies), 0.075 μl of 100 μM US forward primer, 0.075 μl of 100 μM US reverse 1 primer, and 0.2 μl of Platinum Taq polymerase (Life Technologies) at 95°C for 5 min, followed by 15 cycles at 95°C for 30 s, 55°C for 30 s, and 72°C for […]. The second round of amplification was performed in a final volume of 25 μl using 2 μl of preamplified cDNA, 2.5 μl of […] PCR buffer (Life Technologies), 1 μl of 50 mM MgCl2 (Life Technologies), 1 μl of 10 mM dNTPs (Life Technologies), 0.05 μl of 100 μM US forward primer, 0.05 μl of 100 μM US reverse 2 primer, 0.0375 μl of US probe, and 0.2 μl of Platinum Taq polymerase (Life Technologies) at 95°C for 5 min, followed by 45 cycles at 95°C for 30 s and 60°C for 1 min. The list of primers and probe is available in table S9. The absolute number of US copies in the PCR was calculated using a standard curve ranging from 2 to 512 copies of a plasmid containing the full-length HIV-1 genome (pNL4.3.Luc.R-E-). […] The quantity of CA US HIV-1 RNA was expressed as the number of copies per 150 ng of input RNA in reverse transcription.
The measurements related to the end points CA US HIV-1 RNA, MS HIV-1 RNA, plasma HIV-1 RNA, and drug plasma levels were described as median with IQR or full range. […] The fold change difference per study arm from pretreatment CA US HIV-1 RNA levels to the time points 6 hours, day 14, and day 42 after first dosing was calculated by adding up the fold change per individual divided by the total number of measurements available per time point. We analyzed the primary end point by a generalized estimating equation model to evaluate whether any difference in the CA US HIV-1 RNA existed at any time point during the trial in any of the three interventional arms compared to the control arm. An interaction term of time and treatment was included. […] The difference between the observed and expected amount of CA US HIV-1 RNA was calculated, and combination therapy was considered synergistic if the difference and its 95% confidence interval were >0. Because of the number of participants in this pilot, all secondary end points were exploratory.

[1] = Plasma drug concentrations (pyrimethamine UPLC-MS/MS, VPA assay, unbound dolutegravir) in trial participants; assay type: in vivo, human; details: for Drug detectable in plasma: day 42 (28 days after end of treatment); for concentration at 6 h / concentration at 14 day: human, plasma, oral; for concentration at 14 day: day 14; for PLWH with VPA plasma levels exceeding the therapeutic window (up to 100 mg/liter): day 7
Procedure: Self-reported adherence was assessed at each study visit, and empty pill strips were collected after the 2-week intervention phase. […] A gradient (0.3 ml/min) with two eluents was used (A: 2 mM ammonium acetate + 0.1% formic acid in water; B: 2 mM ammonium acetate + 0.1% formic acid in methanol). […] For measurement validation, we performed linearity, correctness, LOD and lower LOQ, repeatability, reproducibility, measurement uncertainty, robustness, and carryover. […] Unbound dolutegravir plasma concentrations were quantified with a validated UPLC-MS/MS bioquantification method as previously described ([61]).

CCc1nc(N)nc(N)c1-c1ccc(Cl)cc1 [pyrimethamine]
Mean fold change in CA US HIV-1 RNA (HIV-1; 6 hours after first dose, arm mean): 2.11 fold
PLWH with increased CA US HIV-1 RNA (responders) (HIV-1; 6 hours after the first dose): six of seven
Median fold change CA US HIV-1 RNA (HIV-1; after 6 hours, the two arms exposed to pyrimethamine pooled (with and without VPA)): 1.8 fold
Median fold change in CA US HIV-1 RNA (normalized to day 0, 0 hours) (HIV-1; day 0, t = 0 hours (pretreatment baseline, normalisation point)): 1 fold
Median fold change in CA US HIV-1 RNA (normalized to day 0, 0 hours) (HIV-1; day 0, t = 6 hours after first dose, arm median, PLWH on cART, oral PYR 200 mg day 1 then 100 mg once daily, VPA 30 mg/kg per day): 2.1073 fold
Median fold change in CA US HIV-1 RNA (normalized to day 0, 0 hours) (HIV-1; day 14 (end of treatment), arm median, PLWH on cART): 1.9 fold
Median fold change in CA US HIV-1 RNA (normalized to day 0, 0 hours) (HIV-1; day 14 (end of treatment), arm median, PLWH on cART, listed as Pyrimethamine): 1.9129 fold
Median fold change in CA US HIV-1 RNA from baseline (HIV-1; day 14): 1.8 fold
Median fold change in CA US HIV-1 RNA (normalized to day 0, 0 hours) (HIV-1; day 42 (28 days after end of treatment), arm median, PLWH on cART): 1.7 fold
Median fold change in CA US HIV-1 RNA (normalized to day 0, 0 hours) (HIV-1; day 42 (28 days after end of treatment), arm median, PLWH on cART, listed as Pyrimethamine): 1.6775 fold
Median fold change in CA US HIV-1 RNA from baseline (HIV-1; day 42): 1.6 fold
CA US HIVRNA copies/150 ng Total RNA Day 0, 6 hours (HIV-1; listed as PYR): 125,01 copies/150 ng Total RNA and 126,50 copies/150 ng Total RNA and 51,31 copies/150 ng Total RNA and 94,04 copies/150 ng Total RNA and 39,82 copies/150 ng Total RNA and 55,52 copies/150 ng Total RNA and 96,01 copies/150 ng Total RNA
CA US HIVRNA copies/150 ng Total RNA Day 14 (HIV-1; listed as PYR): 114,91 copies/150 ng Total RNA and 111,02 copies/150 ng Total RNA and 74,67 copies/150 ng Total RNA and 54,10 copies/150 ng Total RNA and 42,33 copies/150 ng Total RNA and 62,36 copies/150 ng Total RNA and 111,26 copies/150 ng Total RNA
CA US HIVRNA copies/150 ng Total RNA Day 42 (HIV-1; listed as PYR): 85,80 copies/150 ng Total RNA and 54,17 copies/150 ng Total RNA and 82,71 copies/150 ng Total RNA and 69,81 copies/150 ng Total RNA and 29,28 copies/150 ng Total RNA and 101,16 copies/150 ng Total RNA and 84,39 copies/150 ng Total RNA
CA US HIVRNA copies/150 ng Total RNA Day 0, pretreatment (HIV-1; listed as PYR): 32,60 copies/150 ng Total RNA and 68,92 copies/150 ng Total RNA and 24,35 copies/150 ng Total RNA and 49,43 copies/150 ng Total RNA and 16,00 copies/150 ng Total RNA and 79,98 copies/150 ng Total RNA and 51,15 copies/150 ng Total RNA
Median plasma concentration of pyrimethamine with CYP3A inducers ([1]; PLWH on efavirenz- or nevirapine-containing cART): did not have lower
Drug detectable in plasma [1]: No pyrimethamine or VPA was detectable
concentration at 6 h ([1]; 200 mg, Median plasma total pyrimethamine concentration, 6 hours after first dose (200 mg), pyrimethamine alone, seven participants): 1630 ng/mL
concentration at 6 h ([1]; 200 mg, Median pyrimethamine Ctrough by integrase inhibitor exposure, 6 hours, group printed first of 'versus' pair): 1300 ng/mL
concentration at 6 h ([1]; 200 mg, Median pyrimethamine Ctrough by integrase inhibitor exposure, 6 hours, group printed second of 'versus' pair): 1400 ng/mL
concentration at 6 h ([1]; Median plasma total pyrimethamine concentration, 6 hours after first dose, combination arm with VPA): 1160 ng/mL
concentration at 14 day ([1]; Median pyrimethamine Ctrough by integrase inhibitor exposure, uninterrupted pyrimethamine, group printed first): 2800 ng/mL
concentration at 14 day ([1]; Median pyrimethamine Ctrough by integrase inhibitor exposure, uninterrupted pyrimethamine, group printed second): 3200 ng/mL
concentration at 14 day ([1]; Median pyrimethamine Ctrough, combination arm with VPA, four PLWH with uninterrupted exposure): 1990 ng/mL
concentration at 14 day ([1]; Median pyrimethamine Ctrough, monotherapy arm, six PLWH with uninterrupted exposure): 3480 ng/mL
concentration at 14 day ([1]; Pyrimethamine plasma level, individual, LUNA-21 (combination arm), stopped treatment at day 10): 2520 ng/mL

CCCC(CCC)C(=O)O [valproic acid]
Median CA US HIV-1 RNA compared to pretreatment levels (HIV-1; any time point): did not have significantly increased
CA US HIVRNA copies/150 ng Total RNA Day 0, 6 hours (HIV-1; listed as VPA): 42,74 copies/150 ng Total RNA and 53,04 copies/150 ng Total RNA and 19,23 copies/150 ng Total RNA and 101,51 copies/150 ng Total RNA and 51,59 copies/150 ng Total RNA and 10,16 copies/150 ng Total RNA and 16,00 copies/150 ng Total RNA
CA US HIVRNA copies/150 ng Total RNA Day 14 (HIV-1; listed as VPA): 28,40 copies/150 ng Total RNA and 97,80 copies/150 ng Total RNA and 16,00 copies/150 ng Total RNA and 47,89 copies/150 ng Total RNA and 161,79 copies/150 ng Total RNA and 18,41 copies/150 ng Total RNA and 18,82 copies/150 ng Total RNA
CA US HIVRNA copies/150 ng Total RNA Day 42 (HIV-1; listed as VPA): 49,74 copies/150 ng Total RNA and 59,03 copies/150 ng Total RNA and 16,00 copies/150 ng Total RNA and 52,98 copies/150 ng Total RNA and 59,33 copies/150 ng Total RNA and 22,83 copies/150 ng Total RNA
CA US HIVRNA copies/150 ng Total RNA Day 0, pretreatment (HIV-1; listed as VPA): 95,16 copies/150 ng Total RNA and 39,10 copies/150 ng Total RNA and 16,00 copies/150 ng Total RNA and 76,70 copies/150 ng Total RNA and 12,93 copies/150 ng Total RNA and 22,90 copies/150 ng Total RNA
PLWH with VPA plasma levels exceeding the therapeutic window (up to 100 mg/liter) ([1]; those who continued VPA): three of nine
PLWH with VPA plasma levels exceeding the therapeutic window (up to 100 mg/liter) ([1]; those whose therapy was adjusted for toxicity while receiving VPA): three of the five
Drug detectable in plasma [1]: No pyrimethamine or VPA was detectable
concentration at 6 h ([1]; 30 mg/kg per day (divided into two equal doses), 6 hours, VPA monotherapy, read-out: Median plasma total VPA concentration): 47300 ng/mL
concentration at 14 day ([1]; 30 mg/kg per day, VPA monotherapy, six PLWH with uninterrupted exposure, read-out: Median VPA Ctrough): 84800 ng/mL
concentration at 6 h ([1]; 6 hours, combination treatment with pyrimethamine, read-out: Median plasma total VPA concentration): 47400 ng/mL
concentration at 14 day ([1]; combination treatment, four PLWH with uninterrupted exposure, read-out: Median VPA Ctrough): 113000 ng/mL
